Results from article PMC9246773, “Assessing the Activity of Antimicrobial Peptides Against Common Marine Bacteria Located in Rotifer (Brachionus plicatilis) Cultures” (Probiotics and Antimicrobial Proteins, 2022).
Where two headings read alike, the source gives them in different places. No end group written: not given here.

What was measured:
Assay type in all cases: cell-based
Vibrio alginolyticus [1] = system: Vibrio alginolyticus
Description: (§1) A range of bacterial species with the potential to be transferred to developing fish larvae as pathogens or probiotics were selected for use in the study (Table 2). Bacterial isolates were stored at −80 °C and thawed, and 25 µL of the isolates was spread onto marine salt agar (MSA) media. All isolates were incubated at 25 °C for 18 h to reach mid-log growth phase. All isolates were sub-cultured and identified using mass spectrometry (MALDI-TOF) using the BioTyper and MBT 8468 library (Bruker Pty Ltd). The isolate Tenacibaculum discolor was plated on Anacker and Oradal’s marine (AOM) media, incubated for 48 h and identified using the aforementioned method. Bacterial isolates were suspended in sterile saline (0.75% NaCl w/v) to 0.5 McFarland standard. […] The bacterial isolates T. discolor and Pseudoalteromonas sp. require marine salts to grow and were not added to MHB (0‰). The isolate T. discolor requires low nutrients to grow, therefore, a separate MHB (25‰) was prepared at a diluted ratio of 1 part MHB and 7 parts artificial seawater (25‰).
(§2) The protocol was followed to determine the minimum inhibitory concentration (MIC) of the selected peptides. Two MIC assays were performed, firstly to determine whether each peptide precipitated in MHB and thereby required acetic acid adjustments (supplementary materials) and secondly, to determine the antimicrobial activity of each peptide in artificial seawater (25‰). Peptide stock solutions (1.3 mg mL^−1) were made by diluting the peptides in sterile deionised water. MHB was made with deionised water to reach a concentration of approaching 0‰ and artificial sea salts (Sigma-Aldrich® S9883) to reach a salinity of 25‰.
(§3) Once the acetic acid requirement for each peptide was determined (Table 3), the antimicrobial activity of each peptide was tested at a salinity of 0‰ and 25‰ for all bacterial isolates. A stock solution for peptides that required acetic acid was prepared by a 1:2 dilution in acetic acid (0.02% acetic acid w/v, containing 0.4% BSA) solution. In a 96-well polypropylene microtitre plates (Costar® 3879), 100 µL of this peptide stock was added to the first well for each bacterial isolate tested and serially diluted twofold with acetic acid (0.01% acetic acid w/v, containing 0.2% BSA). From each well, 10 µL of each peptide concentration was added to the corresponding wells of a new 96-well microtitre plate. From each of the bacterial suspensions (0‰), 90 µL was added to each well. […] Twofold serial dilutions were made with MHB (0‰). From each of the bacterial suspensions (0‰), 50 µL was added to each well. The same method was followed for testing peptides in MHB at 25‰. All peptide concentrations ranged from 0.125 to 65 µg mL^−1, and the bacterial suspension in each well was approximately 5 × 10^5 CFU mL^−1. The different salinities were used to compare any differences in antimicrobial activity in 0‰ and 25‰ water. […] Each bacterium was trialled in duplicate.

[2] = system: Escherichia coli (ATCC 25922)
Description: as §1, §2, §3

Shewanella sp. [3] = system: Shewanella sp.
Description: as §1, §2, §3

[4] = system: Vibrio harveyi (ATCC 35084)
Description: as §1, §2, §3

Vibrio harveyi [5] = system: Vibrio harveyi
Description: as §1, §2, §3

Pseudoalteromonas sp. = system: Pseudoalteromonas sp.
Description: as §1, §2, §3

Vibrio scophthalmi [6] = system: Vibrio scophthalmi
Description: as §1, §2, §3

Tenacibaculum discolor = system: Tenacibaculum discolor
Description: as §1, §2, §3

Vibrio rotiferianus [7] = system: Vibrio rotiferianus
Description: as §1, §2, §3

Vibrio alginolyticus [8] = system: Vibrio alginolyticus; remark: listed apart in the source
Description: as §1, §2
(§4) A broth microdilution protocol was followed to test whether the AMPs precipitated in MHB. The isolates T. discolor and Pseudoalteromonas were excluded from this assay because they required marine salts for growth. The peptides HHC10 and HHC36 previously required acetic acid adjustments according to [63] and were not trialled in this assay. To test if peptides required acetic acid, each peptide was diluted 1:2 in acetic acid (0.02% acetic acid w/v, containing 0.4% BSA) solution. In a 96-well polypropylene microtitre plates (Costar® 3879), 100 µL of this peptide stock was added to the first well for each bacterial isolate tested and serially diluted 2-fold with acetic acid (0.01% acetic acid w/v, containing 0.2% BSA). From each well, 10 µL of each peptide concentration was added to the corresponding wells of a new 96-well microtitre plate. From each of the bacterial suspensions in MHB (0‰), 90 µL was added to each well. […] From each of the bacterial suspensions in MHB (0‰), 50 µL was added to each well. All peptide concentrations ranged from 0.125 - 65µg mL^-1 and the bacterial suspension in each well was approximately 5 × 10^5 CFU mL^-1. Antimicrobial peptides that have an MIC value two or more dilutions higher in the assay with no acetic acid, compared to the assay with acetic acid, require acetic acid adjustments. The 96-well plates were incubated at 25 °C and read at 24 and 48 hours. The MIC was visually determined using a Sensititre™ Vizion™ Digital MIC Viewing System (Thermo Scientific™), and the lowest AMP concentration that had no bacterial growth was recorded as the MIC after 48 hours. Each bacterium was trialled in duplicate.

[9] = system: Escherichia coli (ATCC 25922); remark: listed apart in the source
Description: as §1, §2, §4

Shewanella sp. [10] = system: Shewanella sp.; remark: listed apart in the source
Description: as §1, §2, §4

[11] = system: Vibrio harveyi (ATCC 35084); remark: listed apart in the source
Description: as §1, §2, §4

Vibrio harveyi [12] = system: Vibrio harveyi; remark: listed apart in the source
Description: as §1, §2, §4

Vibrio scophthalmi [13] = system: Vibrio scophthalmi; remark: listed apart in the source
Description: as §1, §2, §4

Vibrio rotiferianus [14] = system: Vibrio rotiferianus; remark: listed apart in the source
Description: as §1, §2, §4

[15] = no acetic acid (peptide diluted 1:10 in MHB), MHB 0‰, 25 °C, MIC after 48 h, ca. 5 × 10^5 CFU mL^-1, duplicate
[16] = with acetic acid (0.01% acetic acid w/v, 0.2% BSA diluent), MHB 0‰, 25 °C, MIC after 48 h, ca. 5 × 10^5 CFU mL^-1, duplicate
[17] = MHB 0‰, acetic acid only for peptides requiring it, 25 °C, MIC after 48 h, ca. 5 × 10^5 CFU mL^-1, duplicate
[18] = MHB with artificial sea salts 25‰, acetic acid only for peptides requiring it, 25 °C, MIC after 48 h, ca. 5 × 10^5 CFU mL^-1, duplicate

## KRWWKWWRR-NH2 [HHC36]
Vibrio alginolyticus [1]; 48 h
  MIC V. alginolyticus, salinity 0‰: > 65 µg/mL
  MIC V. alginolyticus, salinity 25‰: > 65 µg/mL
[2]; ATCC 25922, 48 h
  MIC E. coli ATCC 25922, salinity 0‰: 2.03 µg/mL
  MIC E. coli ATCC 25922, salinity 25‰: > 65 µg/mL
Shewanella sp. [3]; 48 h
  MIC Shewanella sp., salinity 25‰: > 65 µg/mL
[4]; ATCC 35084, 48 h
  MIC V. harveyi ATCC 35084, salinity 0‰: 32.5 µg/mL
  MIC V. harveyi ATCC 35084, salinity 25‰: > 65 µg/mL
Vibrio harveyi [5]; 48 h
  MIC V. harveyi, salinity 0‰: 32.5 µg/mL
  MIC V. harveyi, salinity 25‰: > 65 µg/mL
Pseudoalteromonas sp.; 48 h
  MIC Pseudoalteromonas sp., salinity 25‰: > 65 µg/mL
Vibrio scophthalmi [6]; 48 h
  MIC V. scophthalmi, salinity 0‰: 2.03 µg/mL
  MIC V. scophthalmi, salinity 25‰: > 65 µg/mL
Tenacibaculum discolor; 48 h
  MIC T. discolor, salinity 25‰: > 65 µg/mL
Vibrio rotiferianus [7]; 48 h
  MIC V. rotiferianus, salinity 0‰: > 65 µg/mL
  MIC V. rotiferianus, salinity 25‰: > 65 µg/mL

## RRQWRGWVRIWL-NH2 [Peptide 3005]
Vibrio alginolyticus [8]; 48 h
  MIC V. alginolyticus, Acetic: 4.06 µg/mL
  MIC V. alginolyticus, No acetic: 16.25 µg/mL
[9]; ATCC 25922, 48 h
  MIC E. coli ATCC 25922, Acetic: > 65 µg/mL
  MIC E. coli ATCC 25922, No acetic: > 65 µg/mL
Shewanella sp. [10]; 48 h
  MIC Shewanella sp., Acetic: 4.06 µg/mL
  MIC Shewanella sp., No acetic: 8.13 µg/mL
[11]; ATCC 35084, 48 h
  MIC V. harveyi ATCC 35084, Acetic: 16.25 µg/mL
  MIC V. harveyi ATCC 35084, No acetic: 16.25 µg/mL
Vibrio harveyi [12]; 48 h
  MIC V. harveyi, Acetic: 4.06 µg/mL
  MIC V. harveyi, No acetic: 1.02 µg/mL
Vibrio scophthalmi [13]; 48 h
  MIC V. scophthalmi, Acetic: 1.02 µg/mL
  MIC V. scophthalmi, No acetic: 0.25 µg/mL
Vibrio rotiferianus [14]; 48 h
  MIC V. rotiferianus, Acetic: 4.06 µg/mL
  MIC V. rotiferianus, No acetic: 1.02 µg/mL
Vibrio alginolyticus [1]; 48 h
  MIC V. alginolyticus, salinity 0‰: 2.03 µg/mL
  MIC V. alginolyticus, salinity 25‰: > 65 µg/mL
[2]; ATCC 25922, 48 h
  MIC E. coli ATCC 25922, salinity 0‰: 4.06 µg/mL
  MIC E. coli ATCC 25922, salinity 25‰: > 65 µg/mL
Shewanella sp. [3]; 48 h
  MIC Shewanella sp., salinity 0‰: 8.13 µg/mL
  MIC Shewanella sp., salinity 25‰: 65 µg/mL
[4]; ATCC 35084, 48 h
  MIC V. harveyi ATCC 35084, salinity 0‰: 4.06 µg/mL
  MIC V. harveyi ATCC 35084, salinity 25‰: > 65 µg/mL
Vibrio harveyi [5]; 48 h
  MIC V. harveyi, salinity 0‰: 4.06 µg/mL
  MIC V. harveyi, salinity 25‰: > 65 µg/mL
Pseudoalteromonas sp.; 48 h
  MIC Pseudoalteromonas sp., salinity 25‰: > 65 µg/mL
Vibrio scophthalmi [6]; 48 h
  MIC V. scophthalmi, salinity 0‰: 0.13 µg/mL
  MIC V. scophthalmi, salinity 25‰: 65 µg/mL
Tenacibaculum discolor; 48 h
  MIC T. discolor, salinity 25‰: > 65 µg/mL
Vibrio rotiferianus [7]; 48 h
  MIC V. rotiferianus, salinity 0‰: 1.02 µg/mL
  MIC V. rotiferianus, salinity 25‰: > 65 µg/mL

## VLQIKKVLRLLL-NH2 [Peptide 3011]
Vibrio alginolyticus [8]; [15]
  MIC V. alginolyticus, No acetic: 4.06 µg/mL
Vibrio alginolyticus [8]; [16]
  MIC V. alginolyticus, Acetic: 4.06 µg/mL
[9]; [15]
  MIC E. coli ATCC 25922, No acetic: 8.13 µg/mL
[9]; [16]
  MIC E. coli ATCC 25922, Acetic: 16.25 µg/mL
Shewanella sp. [10]; [15]
  MIC Shewanella sp., No acetic: 16.25 µg/mL
Shewanella sp. [10]; [16]
  MIC Shewanella sp., Acetic: 16.25 µg/mL
[11]; [15]
  MIC V. harveyi ATCC 35084, No acetic: 8.13 µg/mL
[11]; [16]
  MIC V. harveyi ATCC 35084, Acetic: 16.25 µg/mL
Vibrio harveyi [12]; [15]
  MIC V. harveyi, No acetic: 32.5 µg/mL
Vibrio harveyi [12]; [16]
  MIC V. harveyi, Acetic: 16.25 µg/mL
Vibrio scophthalmi [13]; [15]
  MIC V. scophthalmi, No acetic: 2.03 µg/mL
Vibrio scophthalmi [13]; [16]
  MIC V. scophthalmi, Acetic: 4.06 µg/mL
Vibrio rotiferianus [14]; [15]
  MIC V. rotiferianus, No acetic: 4.06 µg/mL
Vibrio rotiferianus [14]; [16]
  MIC V. rotiferianus, Acetic: 4.06 µg/mL
Vibrio alginolyticus [1]; [17]
  MIC V. alginolyticus, salinity 0‰: 4.06 µg/mL
Vibrio alginolyticus [1]; [18]
  MIC V. alginolyticus, salinity 25‰: > 65 µg/mL
[2]; [17]
  MIC E. coli ATCC 25922, salinity 0‰: 16.25 µg/mL
[2]; [18]
  MIC E. coli ATCC 25922, salinity 25‰: > 65 µg/mL
Shewanella sp. [3]; [17]
  MIC Shewanella sp., salinity 0‰: 8.13 µg/mL
Shewanella sp. [3]; [18]
  MIC Shewanella sp., salinity 25‰: > 65 µg/mL
[4]; [17]
  MIC V. harveyi ATCC 35084, salinity 0‰: 8.13 µg/mL
[4]; [18]
  MIC V. harveyi ATCC 35084, salinity 25‰: > 65 µg/mL
Vibrio harveyi [5]; [17]
  MIC V. harveyi, salinity 0‰: 8.13 µg/mL
Vibrio harveyi [5]; [18]
  MIC V. harveyi, salinity 25‰: > 65 µg/mL
Pseudoalteromonas sp.; MHB with artificial sea salts 25‰, 25 °C, MIC after 48 h, ca. 5 × 10^5 CFU mL^-1, duplicate
  MIC Pseudoalteromonas sp., salinity 25‰: > 65 µg/mL
Vibrio scophthalmi [6]; [17]
  MIC V. scophthalmi, salinity 0‰: 1.02 µg/mL
Vibrio scophthalmi [6]; [18]
  MIC V. scophthalmi, salinity 25‰: > 65 µg/mL
Tenacibaculum discolor; MHB (25‰) diluted 1 part MHB and 7 parts artificial seawater (25‰), 25 °C, MIC after 48 h, ca. 5 × 10^5 CFU mL^-1, duplicate
  MIC T. discolor, salinity 25‰: > 65 µg/mL
Vibrio rotiferianus [7]; [17]
  MIC V. rotiferianus, salinity 0‰: 4.06 µg/mL
Vibrio rotiferianus [7]; [18]
  MIC V. rotiferianus, salinity 25‰: > 65 µg/mL
